Experimental findings from patent publication US5296479A, “Treatment of psychosis using 1-cycloalkylpiperidines” (priority 1992, dated 1994) are described below.

Each structure is given as a SMILES string. Structures can show the parent of a compound that is named as a salt.

The test system of data set [1] is isolation-induced aggressive behavior. Kind of data set: Isolation-Induced Aggression in Mice. Type of data set: in vivo, Male Balb/c mice. Particulars: oral, Table II discussion. On the procedure: Male Balb/c mice (Charles River) were used. […] Isolated mice failing to consistently attack an intruder were eliminated from the colony. Drug testing was carried out by treating the isolated mice with test drugs or standards. Fifteen minutes after dosing with test drugs by the oral route, one isolated mouse was removed from its home cage and placed in the home cage of another isolate. Scoring was a yes or no response for each pair. A maximum of 3 minutes was allowed for an attack and the pair was separated immediately upon an attack. Selection of home cage and intruder mice was randomized for each test. Mice were treated and tested twice a week with at least a 2 day washout period between treatments.

Data set [2] deals with PCP-induced turning behavior. Briefly: PCP-induced turning behavior in rats. Format: in vivo, Male Sprague-Dawley rats. Particulars: p.o., Table III discussion. The protocol:
Male Sprague-Dawley rats (CD/CR, Charles River), weighing 190-290 g, were used for surgery. In order to spare […] neurons, rats were injected with 25 mg/kg imipramine i.p. 30 minutes before surgery. The rats were anesthetized with a 1:1.2 ratio mixture of Xylazine:Ketamine given 0.1 mL/100 g body weight i.m. A Ringers-Wydaze (100:0.01) solution was given to prevent dehydration. Dopamine was depleted in the right striatum by injecting the neurotoxin 6-hydroxydopamine (6-OHDA) into the substantia nigra of the right cerebral hemisphere. Five mg of 6-OHDA was dissolved in 5 mL of a 0.04% ascorbic acid solution which had been deoxygenated with nitrogen. Five μL of the 6-OHDA solution was injected into the substantia nigra through a 26 gauge needle over a five minute period. […]
Rotation rate and direction were determined with Coulbourn Instruments Rotometry Monitors. Clockwise and counter clockwise rotations were recorded at 30 and 60 minute intervals. […]
The data were analyzed with an analysis of variance statistical test and individual comparisons of each dose of test drug to control were made with Dunnett's multiple range test. The ED50 was calculated with a Litchfield and Wilcoxon test using percent of control values.

The test system of data set [3] is catalepsy. Kind of data set: Induction of catalepsy. Format: in vivo, Male CD rats. Particulars: rats, oral; Table III discussion. On the procedure: Male CD rats (Charles River) weighing 250-300 g were treated with test drugs and standards by the oral route and tested for the presence of catalepsy 30 minute, 60 minute, and 90 minute after treatment. To test for catalepsy, each rat is placed with its front paws over a 10 cm high horizontal bar. The intensity of catalepsy is measured by the length of time it takes the animal to move both forelegs to the table. A time of 20 seconds is considered maximal catalepsy.

Consider `Fc1ccc(OCC2CCN(CC3CC3)CC2)cc1` [Example 1, 1-(Cyclopropylmethyl)-4-(4-fluorophenoxymethyl)piperidine], for which the “inhibiting the isolation-induced aggressive behavior, in words” value in data set [1] is given as “potent activities”.
On to `O=C(CC1CCN(CC2CC2)CC1)c1ccc(F)cc1` [Example 504, 1-(Cyclopropylmethyl)-4-2'-(4"-Fluorophenyl)-2-oxoethyl)-piperidine, hydrobromide salt], for which, in data set [2], the “inhibiting PCP-induced turning behavior, in words” value is reported as “potent activity”. Moreover, the “producing catalepsy, in words” value in data set [3] was “does not produce catalepsy”.
Regarding `O=C(CCCN1CCC(O)(c2ccc(Cl)cc2)CC1)c1ccc(F)cc1` [Haloperidol], in data set [2], the “inhibiting PCP-induced turning behavior, in words” value is “potent activity”. The “producing catalepsy, in words” value in data set [3] is on record as “very potent in producing catalepsy”. The “inhibiting the isolation-induced aggressive behavior, in words” value in data set [1] is given as “potent activities”.
